Data set [1] in a line: Trapping efficiency of oligonucleotide in liposomes after anion exchange chromatography. The data set is classed as physicochemical. To be noted: DSPC/Chol/DODAP/PEG-CerC14 liposomes; initial ATP-to-lipid ratio 0.2 mg/mg; 50 mM citrate buffer.
A short description of data set [2]: Leakage experiments: ethanol-induced permeabilization of LUVs. The data set is classed as physicochemical. The note with it: DSPC/Chol/PEG-CerC14/DODAP liposomes, 40° C. On the procedure: Leakage experiments. Ethanol-induced permeabilization of LUVs was measured at different temperatures and as a function of the size (MW) of the entrapped solute. […] Leakage of calcein entrapped at self-quenching concentrations was followed by monitoring the dequenching of the calcein fluorescence. LUVs were prepared by hydration of a lipid film with an aqueous solution containing 75 mM calcein and 5 mM HEPES adjusted to pH 7.5 by addition of sodium hydroxide, followed by 5 freeze/thaw cycles and extrusion through 2 stacked 100 nm filters (10 passes). In the case of […] extrusion was performed at 60° C. Unentrapped calcein was exchanged against an isoosmotic HBS buffer by anion exchange chromatography on a DEAE Sepharose CL6B column. The liposome stock solution was diluted to a lipid concentration of 3 μM in HBS containing varying amounts of ethanol pre-equilibrated at 25, 40 or 60° C. The fluorescence at 520 nm was measured (excitation wavelength […], long-pass filter at 430 nm) with a Perkin Elmer LS50 Fluorimeter (Perkin Elmer) after 5 min of incubation at the corresponding temperature. […] The FITC/LRh-PE ratio was measured before and after addition of ethanol. FITC and LRh-PE fluorescence were measured at 515 nm and 590 nm with the excitation wavelength set to 485 nm and 560 nm, respectively.

The text below walks through data of patent US7094423B1, “Methods for preparation of lipid-encapsulated therapeutic agents” (INEX Pharmaceuticals Corp., priority 1999, dated 2006).

As to `Nc1ncnc2c1ncn2[C@@H]1O[C@H](COP(=O)(O)OP(=O)(O)OP(=O)(O)O)[C@@H](O)[C@H]1O` [ATP], the fraction entrapped entry in data set [1] was “less than 10%”.
As for `O=C(O)CN(CC(=O)O)Cc1cc2c(cc1O)Oc1cc(O)c(CN(CC(=O)O)CC(=O)O)cc1C21OC(=O)c2ccccc21` [calcein], in data set [2], the “ethanol concentration at which leakage reaches a maximum” value is on record as “around 40 % ethanol” and the “ethanol concentration at which leakage starts” value was ≤ 30 % ethanol.
